Results on ten compounds are retold here after ChEMBL document CHEMBL3991601, “The target landscape of clinical kinase drugs” (Science, 2017).

The target of one assay is T1, Heme oxygenase 2 (Homo sapiens, UniProt P30519).
T1 sequence (P30519 whole entry): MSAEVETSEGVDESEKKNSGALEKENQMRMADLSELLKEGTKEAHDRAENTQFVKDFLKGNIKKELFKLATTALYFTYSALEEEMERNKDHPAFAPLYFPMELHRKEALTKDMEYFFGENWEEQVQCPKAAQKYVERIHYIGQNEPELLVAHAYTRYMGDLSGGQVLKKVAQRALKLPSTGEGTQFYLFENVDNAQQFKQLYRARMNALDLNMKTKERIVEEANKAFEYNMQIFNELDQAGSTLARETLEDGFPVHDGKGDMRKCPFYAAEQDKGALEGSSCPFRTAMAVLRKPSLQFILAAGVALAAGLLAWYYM

Assay [1] concerns the target T2, Ras-related protein Rab-10 (Homo sapiens, UniProt P61026).
T2 sequence (P61026 whole entry): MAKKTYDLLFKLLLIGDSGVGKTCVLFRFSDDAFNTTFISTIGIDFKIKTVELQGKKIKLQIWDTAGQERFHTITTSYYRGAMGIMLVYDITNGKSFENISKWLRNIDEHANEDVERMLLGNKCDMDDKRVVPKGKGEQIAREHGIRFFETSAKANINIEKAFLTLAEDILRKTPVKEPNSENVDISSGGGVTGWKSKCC

Assay [2] deals with Serine/threonine-protein kinase SIK2 (Homo sapiens, UniProt Q9H0K1).
The target in assay [3] is T3, Serine/threonine-protein kinase D2 (Homo sapiens, UniProt Q9BZL6).
T3 sequence (Q9BZL6 whole entry): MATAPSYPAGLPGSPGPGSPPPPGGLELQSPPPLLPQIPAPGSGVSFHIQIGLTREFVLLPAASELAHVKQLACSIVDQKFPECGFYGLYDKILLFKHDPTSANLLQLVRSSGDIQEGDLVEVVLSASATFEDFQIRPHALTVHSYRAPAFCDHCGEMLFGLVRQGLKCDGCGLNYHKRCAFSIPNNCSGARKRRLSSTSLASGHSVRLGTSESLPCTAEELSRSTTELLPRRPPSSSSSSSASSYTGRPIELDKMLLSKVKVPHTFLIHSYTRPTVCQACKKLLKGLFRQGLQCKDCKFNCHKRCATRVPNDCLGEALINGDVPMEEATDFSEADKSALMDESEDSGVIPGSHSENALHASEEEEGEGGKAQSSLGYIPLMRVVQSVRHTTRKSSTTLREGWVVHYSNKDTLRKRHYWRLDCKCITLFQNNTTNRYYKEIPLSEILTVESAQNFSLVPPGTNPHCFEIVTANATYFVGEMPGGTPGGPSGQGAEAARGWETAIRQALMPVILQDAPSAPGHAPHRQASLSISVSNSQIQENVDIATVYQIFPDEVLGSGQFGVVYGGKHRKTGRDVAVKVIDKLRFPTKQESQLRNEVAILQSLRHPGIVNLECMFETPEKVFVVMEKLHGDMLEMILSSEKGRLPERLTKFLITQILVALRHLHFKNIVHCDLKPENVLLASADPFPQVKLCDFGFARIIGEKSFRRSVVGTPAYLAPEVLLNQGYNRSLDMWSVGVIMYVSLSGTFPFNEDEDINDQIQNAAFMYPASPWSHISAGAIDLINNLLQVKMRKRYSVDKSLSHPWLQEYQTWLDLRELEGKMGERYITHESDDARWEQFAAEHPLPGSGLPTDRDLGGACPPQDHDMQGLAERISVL

The target in a further assay is Ephrin type-A receptor 5 (Homo sapiens, UniProt P54756).
The target in assay [4] is Tyrosine-protein kinase JAK1 (Homo sapiens, UniProt P23458).
Assay [5] deals with T4, Serine/threonine-protein kinase Nek9 (Homo sapiens, UniProt Q8TD19).
T4 sequence (Q8TD19 whole entry): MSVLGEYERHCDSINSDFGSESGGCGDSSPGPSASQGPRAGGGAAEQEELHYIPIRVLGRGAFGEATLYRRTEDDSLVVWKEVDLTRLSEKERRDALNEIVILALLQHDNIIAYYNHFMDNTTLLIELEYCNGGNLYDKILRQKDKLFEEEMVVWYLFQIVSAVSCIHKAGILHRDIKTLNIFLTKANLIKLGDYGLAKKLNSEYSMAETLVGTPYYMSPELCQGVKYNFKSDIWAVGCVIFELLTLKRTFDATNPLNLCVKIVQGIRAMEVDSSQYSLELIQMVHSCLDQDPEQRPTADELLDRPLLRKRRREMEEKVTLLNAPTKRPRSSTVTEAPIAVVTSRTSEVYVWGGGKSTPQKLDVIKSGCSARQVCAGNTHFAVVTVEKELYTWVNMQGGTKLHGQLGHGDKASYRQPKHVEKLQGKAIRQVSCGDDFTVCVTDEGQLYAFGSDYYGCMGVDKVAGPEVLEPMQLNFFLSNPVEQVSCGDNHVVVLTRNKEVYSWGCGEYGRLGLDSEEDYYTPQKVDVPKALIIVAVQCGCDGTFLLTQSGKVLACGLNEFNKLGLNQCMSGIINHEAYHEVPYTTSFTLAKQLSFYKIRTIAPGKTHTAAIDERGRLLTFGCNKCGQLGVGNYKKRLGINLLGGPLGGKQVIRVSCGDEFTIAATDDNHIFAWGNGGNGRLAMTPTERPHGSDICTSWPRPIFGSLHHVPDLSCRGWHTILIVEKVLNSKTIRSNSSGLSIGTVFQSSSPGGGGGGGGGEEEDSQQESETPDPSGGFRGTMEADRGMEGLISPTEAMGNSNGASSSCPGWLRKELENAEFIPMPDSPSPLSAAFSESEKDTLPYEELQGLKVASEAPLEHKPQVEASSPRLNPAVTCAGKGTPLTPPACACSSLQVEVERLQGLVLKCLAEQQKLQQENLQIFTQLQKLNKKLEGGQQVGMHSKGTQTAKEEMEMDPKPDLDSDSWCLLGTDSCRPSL

Assay [6] concerns the target Cyclin-dependent kinase 6 (Homo sapiens, UniProt Q00534).
In the next assay the target is T5, ADP/ATP translocase 3 (Homo sapiens, UniProt P12236).
T5 sequence (P12236 whole entry): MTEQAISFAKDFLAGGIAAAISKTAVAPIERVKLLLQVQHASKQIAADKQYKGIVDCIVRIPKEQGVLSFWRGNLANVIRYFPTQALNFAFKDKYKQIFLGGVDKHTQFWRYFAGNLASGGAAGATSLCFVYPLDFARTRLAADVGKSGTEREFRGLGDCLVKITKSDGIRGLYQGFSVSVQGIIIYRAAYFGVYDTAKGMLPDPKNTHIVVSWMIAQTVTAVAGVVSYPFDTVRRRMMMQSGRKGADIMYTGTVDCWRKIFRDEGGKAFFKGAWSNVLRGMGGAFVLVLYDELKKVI

Another assay has as its target TGF-beta receptor type-2 (Homo sapiens, UniProt P37173).

Each structure is given as a SMILES string. Activity calls are given as the source filed them. Rule as the data show it, for most assays here: actives have a measured Kd and inactives only a lower limit.

By Kd is commonly meant a measure of binding affinity in units of concentration.
Also: in the data inactive means no Kd found up to 30 µM.

Tyrosine-protein kinase JAK1, sequence (P23458 whole entry): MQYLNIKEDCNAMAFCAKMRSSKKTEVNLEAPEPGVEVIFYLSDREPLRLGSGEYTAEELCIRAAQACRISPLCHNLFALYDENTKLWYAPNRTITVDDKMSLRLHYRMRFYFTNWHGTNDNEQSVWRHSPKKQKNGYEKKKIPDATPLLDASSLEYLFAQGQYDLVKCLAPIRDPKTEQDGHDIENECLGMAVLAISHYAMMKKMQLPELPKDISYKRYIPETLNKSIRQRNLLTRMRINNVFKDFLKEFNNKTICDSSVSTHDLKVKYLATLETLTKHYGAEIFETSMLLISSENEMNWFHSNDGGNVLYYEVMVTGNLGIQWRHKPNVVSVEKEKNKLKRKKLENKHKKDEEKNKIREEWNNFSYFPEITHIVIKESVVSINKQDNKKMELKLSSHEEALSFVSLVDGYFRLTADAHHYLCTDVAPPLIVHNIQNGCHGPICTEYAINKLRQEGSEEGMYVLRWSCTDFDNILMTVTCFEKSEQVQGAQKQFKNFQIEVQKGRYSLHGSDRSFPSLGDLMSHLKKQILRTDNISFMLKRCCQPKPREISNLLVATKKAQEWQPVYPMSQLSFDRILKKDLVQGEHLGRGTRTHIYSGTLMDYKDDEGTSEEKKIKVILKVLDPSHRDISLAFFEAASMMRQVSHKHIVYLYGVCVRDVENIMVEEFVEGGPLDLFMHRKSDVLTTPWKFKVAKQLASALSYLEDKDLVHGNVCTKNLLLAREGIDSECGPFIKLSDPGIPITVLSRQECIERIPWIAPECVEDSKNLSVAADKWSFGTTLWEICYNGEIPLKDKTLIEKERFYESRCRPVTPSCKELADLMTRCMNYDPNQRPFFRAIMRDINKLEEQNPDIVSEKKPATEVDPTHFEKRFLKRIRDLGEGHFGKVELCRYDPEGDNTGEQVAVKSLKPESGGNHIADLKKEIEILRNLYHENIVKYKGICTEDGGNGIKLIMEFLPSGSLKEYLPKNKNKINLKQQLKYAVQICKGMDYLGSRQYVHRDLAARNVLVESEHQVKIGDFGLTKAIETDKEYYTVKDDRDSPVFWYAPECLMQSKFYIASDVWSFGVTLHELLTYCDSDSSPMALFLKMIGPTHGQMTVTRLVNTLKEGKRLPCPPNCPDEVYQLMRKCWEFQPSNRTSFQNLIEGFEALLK
Cyclin-dependent kinase 6, sequence (Q00534 whole entry): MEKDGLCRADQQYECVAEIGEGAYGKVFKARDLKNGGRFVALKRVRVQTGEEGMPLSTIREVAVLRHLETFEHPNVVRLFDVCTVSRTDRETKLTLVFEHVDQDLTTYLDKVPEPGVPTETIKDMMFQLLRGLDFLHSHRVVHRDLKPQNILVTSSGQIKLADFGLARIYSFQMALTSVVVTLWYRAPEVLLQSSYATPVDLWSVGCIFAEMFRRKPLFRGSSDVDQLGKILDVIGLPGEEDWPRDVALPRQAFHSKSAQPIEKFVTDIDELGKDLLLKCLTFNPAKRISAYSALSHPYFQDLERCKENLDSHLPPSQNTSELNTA
TGF-beta receptor type-2, sequence (P37173 whole entry): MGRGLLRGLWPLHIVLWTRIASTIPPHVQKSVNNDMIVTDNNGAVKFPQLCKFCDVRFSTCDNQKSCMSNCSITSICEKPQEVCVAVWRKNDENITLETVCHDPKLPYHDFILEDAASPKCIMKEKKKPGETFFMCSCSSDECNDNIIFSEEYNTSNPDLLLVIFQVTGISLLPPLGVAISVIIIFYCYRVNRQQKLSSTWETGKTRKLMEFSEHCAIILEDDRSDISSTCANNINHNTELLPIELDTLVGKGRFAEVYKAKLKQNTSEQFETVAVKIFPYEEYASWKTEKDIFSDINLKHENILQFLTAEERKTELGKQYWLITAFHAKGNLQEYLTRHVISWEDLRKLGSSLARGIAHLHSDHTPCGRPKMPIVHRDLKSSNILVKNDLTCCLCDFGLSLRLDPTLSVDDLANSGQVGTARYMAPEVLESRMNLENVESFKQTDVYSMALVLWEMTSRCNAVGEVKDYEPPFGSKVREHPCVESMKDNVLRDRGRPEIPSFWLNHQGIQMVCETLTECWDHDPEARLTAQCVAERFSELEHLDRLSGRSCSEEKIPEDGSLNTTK
Ephrin type-A receptor 5, sequence (P54756 whole entry): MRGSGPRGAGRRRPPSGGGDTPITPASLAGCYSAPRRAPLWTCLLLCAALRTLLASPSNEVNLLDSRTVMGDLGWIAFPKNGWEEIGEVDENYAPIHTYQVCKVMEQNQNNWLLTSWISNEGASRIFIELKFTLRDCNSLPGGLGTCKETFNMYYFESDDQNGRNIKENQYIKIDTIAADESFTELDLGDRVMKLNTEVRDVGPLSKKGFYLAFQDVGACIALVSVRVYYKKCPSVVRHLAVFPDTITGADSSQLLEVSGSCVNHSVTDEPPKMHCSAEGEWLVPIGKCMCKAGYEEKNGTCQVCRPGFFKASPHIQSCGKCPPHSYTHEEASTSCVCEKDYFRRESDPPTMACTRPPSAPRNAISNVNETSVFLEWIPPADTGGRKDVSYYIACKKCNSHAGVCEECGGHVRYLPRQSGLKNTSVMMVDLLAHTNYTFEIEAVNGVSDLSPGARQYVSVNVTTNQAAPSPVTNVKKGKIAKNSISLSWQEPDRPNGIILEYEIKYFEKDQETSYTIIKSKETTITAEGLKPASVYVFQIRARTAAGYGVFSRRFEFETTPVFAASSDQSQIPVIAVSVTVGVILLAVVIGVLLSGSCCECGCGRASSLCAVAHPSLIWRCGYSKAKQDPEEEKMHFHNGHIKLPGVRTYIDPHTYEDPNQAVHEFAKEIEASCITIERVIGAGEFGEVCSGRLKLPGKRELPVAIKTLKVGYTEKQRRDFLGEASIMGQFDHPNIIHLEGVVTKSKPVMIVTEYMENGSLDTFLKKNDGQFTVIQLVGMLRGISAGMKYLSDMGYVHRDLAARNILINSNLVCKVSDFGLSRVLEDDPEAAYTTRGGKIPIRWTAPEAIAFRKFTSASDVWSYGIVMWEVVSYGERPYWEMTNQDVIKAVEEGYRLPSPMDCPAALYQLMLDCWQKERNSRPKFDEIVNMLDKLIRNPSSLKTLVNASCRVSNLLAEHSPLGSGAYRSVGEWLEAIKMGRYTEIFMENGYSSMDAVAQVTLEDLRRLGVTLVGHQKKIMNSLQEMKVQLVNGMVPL
Serine/threonine-protein kinase SIK2, sequence (Q9H0K1 whole entry): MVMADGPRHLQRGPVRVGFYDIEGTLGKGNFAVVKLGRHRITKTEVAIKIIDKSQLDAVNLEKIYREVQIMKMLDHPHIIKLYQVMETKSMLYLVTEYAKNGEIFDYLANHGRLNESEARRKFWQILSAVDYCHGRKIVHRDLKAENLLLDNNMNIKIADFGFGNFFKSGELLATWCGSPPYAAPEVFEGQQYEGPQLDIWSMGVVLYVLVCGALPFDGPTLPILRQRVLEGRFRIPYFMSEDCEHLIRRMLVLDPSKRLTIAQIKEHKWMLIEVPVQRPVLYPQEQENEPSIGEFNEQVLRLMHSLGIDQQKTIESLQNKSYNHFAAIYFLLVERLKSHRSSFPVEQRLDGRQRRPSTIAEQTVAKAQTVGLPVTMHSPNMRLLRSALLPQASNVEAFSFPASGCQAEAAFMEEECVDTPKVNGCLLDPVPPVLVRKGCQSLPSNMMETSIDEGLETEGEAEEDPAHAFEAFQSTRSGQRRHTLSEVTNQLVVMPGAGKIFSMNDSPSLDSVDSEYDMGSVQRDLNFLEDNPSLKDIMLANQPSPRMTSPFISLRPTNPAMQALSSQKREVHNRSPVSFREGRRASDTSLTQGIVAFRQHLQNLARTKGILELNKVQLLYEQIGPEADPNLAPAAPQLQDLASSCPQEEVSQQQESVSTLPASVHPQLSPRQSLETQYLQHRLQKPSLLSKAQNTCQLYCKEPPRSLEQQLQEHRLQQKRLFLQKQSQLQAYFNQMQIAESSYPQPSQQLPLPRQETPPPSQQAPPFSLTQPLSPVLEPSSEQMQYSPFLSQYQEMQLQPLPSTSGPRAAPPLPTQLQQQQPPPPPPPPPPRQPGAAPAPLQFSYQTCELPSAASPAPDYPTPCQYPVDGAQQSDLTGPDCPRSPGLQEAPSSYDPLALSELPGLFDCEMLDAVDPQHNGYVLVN

In the case of `NC(=O)c1ccc(N(C(N)=O)c2c(F)cccc2F)nc1-c1ccc(F)cc1F` [VX-702], the Kd (on Heme oxygenase 2; in assay [1]; in assay [2]; in assay [3]; on Ephrin type-A receptor 5; in assay [4]) was > 30 µM (inactive) each time. The Kd (in [5]; in assay [6]; on ADP/ATP translocase 3; at TGF-beta receptor type-2) was > 30 µM (inactive) each time.
As for `CC[C@@](C)(Nc1ccnc(-c2c[nH]c3ncccc23)n1)C(=O)NCC(F)(F)F` [DECERNOTINIB], the Kd (on Heme oxygenase 2; in assay [1]; in assay [2]; in assay [3]; on Ephrin type-A receptor 5; in assay [4]) was > 30 µM (inactive) each time. Further, the Kd (in assay [5]; in [6]; at ADP/ATP translocase 3; at TGF-beta receptor type-2) was > 30 µM (inactive) throughout.
For `COc1cc2ncnc(Nc3ccc(O)cc3)c2cc1OC` [WHI-P131], the Kd (on Heme oxygenase 2; in assay [1]; in assay [2]; in [3]; on Ephrin type-A receptor 5; in assay [4]) was > 30 µM (inactive) each time. Besides, the Kd (in assay [5]; in assay [6]; on ADP/ATP translocase 3; on TGF-beta receptor type-2) was > 30 µM (inactive) in each case.
Regarding `CNC(=O)c1cc(COc2nnc(Nc3ccc(Cl)cc3)c3ccoc23)ccn1` [TELATINIB], the Kd (on Heme oxygenase 2; in assay [1]; in assay [2]; in assay [3]; on Ephrin type-A receptor 5; in assay [4]) was > 30 µM (inactive) throughout. Moreover, the Kd (in assay [5]; in [6]; at ADP/ATP translocase 3; at TGF-beta receptor type-2) was > 30 µM (inactive) each time.
For `COc1cccc(Nc2ncnn3ccc(CN4CC[C@@H](N)[C@H](O)C4)c23)c1` [BMS-690514], the Kd on Heme oxygenase 2 is > 30 µM (inactive); in assay [1], > 30 µM (inactive); in assay [2] it was 0.048 µM (active); in assay [3] it was 0.14 µM (active); on Ephrin type-A receptor 5 it was > 30 µM (inactive); in [4], > 30 µM (inactive). Besides, the Kd (in [5]; in assay [6]; at ADP/ATP translocase 3; at TGF-beta receptor type-2) was > 30 µM (inactive) throughout.
For `COc1cc(F)c(F)c(Nc2ccc(I)cc2F)c1NS(=O)(=O)C1(C[C@H](O)CO)CC1` [REFAMETINIB], the Kd (on Heme oxygenase 2; in [1]; in assay [2]; in assay [3]; on Ephrin type-A receptor 5; in [4]) was > 30 µM (inactive) in each case. The Kd (in assay [5]; in assay [6]; on ADP/ATP translocase 3; at TGF-beta receptor type-2) was > 30 µM (inactive) throughout.
Consider `Cc1ccc(C(=O)Nc2ccc(Oc3cc4cnn(C)c4cc3-c3cn[nH]c3)c(F)c2)c(=O)n1-c1ccc(F)cc1` [MERESTINIB], for which the Kd (on Heme oxygenase 2; in assay [1]; in assay [2]; in assay [3]; on Ephrin type-A receptor 5; in [4]) was > 30 µM (inactive) throughout. The Kd (in assay [5]; in assay [6]; on ADP/ATP translocase 3; at TGF-beta receptor type-2) was > 30 µM (inactive) each time.
For `C=CC(=O)Nc1cccc(Nc2nc(Nc3ccc(N4CCN(C(C)=O)CC4)cc3OC)ncc2C(F)(F)F)c1` [ROCILETINIB], the Kd (at Heme oxygenase 2; in assay [1]; in assay [2]; in assay [3]; at Ephrin type-A receptor 5; in assay [4]) was > 30 µM (inactive) in each case. The Kd (in assay [5]; in assay [6]; at ADP/ATP translocase 3; on TGF-beta receptor type-2) was > 30 µM (inactive) throughout.
On to `COc1cc(Nc2ncc(F)c(Nc3ccc4c(n3)N(COP(=O)(O)O)C(=O)C(C)(C)O4)n2)cc(OC)c1OC` [FOSTAMATINIB], for which the Kd (at Heme oxygenase 2; in assay [1]; in [2]; in [3]; on Ephrin type-A receptor 5; in [4]) was > 30 µM (inactive) each time. The Kd in assay [5] is 0.041 µM (active); in assay [6], > 30 µM (inactive); on ADP/ATP translocase 3, > 30 µM (inactive); at TGF-beta receptor type-2 it was > 30 µM (inactive).
`O=S(=O)(c1cccc2cnccc12)N1CCCNCC1` [FASUDIL]: the Kd at Heme oxygenase 2 is > 30 µM (inactive); in assay [1], > 30 µM (inactive); in assay [2] it was > 30 µM (inactive); in assay [3], 6.42 µM (active); on Ephrin type-A receptor 5, > 30 µM (inactive); in assay [4] it was > 30 µM (inactive). Besides, the Kd (in assay [5]; in assay [6]; at ADP/ATP translocase 3; on TGF-beta receptor type-2) was > 30 µM (inactive) each time.
